This is an account of results in patent publication US8765748B2, “Indazolyl, benzimidazolyl, benzotriazolyl substituted indolinone derivatives as kinase inhibitors useful in the treatment of cancer” (University Health Network, priority 2007, dated 2014).

Assay [1] has as its target T1, human PLK4 (Homo sapiens, UniProt O00444).
T1 construct: amino terminal GST fusion of residues 1-391 of human PLK4; made in house; host or cells: E. coli
T1 sequence (O00444 1-391): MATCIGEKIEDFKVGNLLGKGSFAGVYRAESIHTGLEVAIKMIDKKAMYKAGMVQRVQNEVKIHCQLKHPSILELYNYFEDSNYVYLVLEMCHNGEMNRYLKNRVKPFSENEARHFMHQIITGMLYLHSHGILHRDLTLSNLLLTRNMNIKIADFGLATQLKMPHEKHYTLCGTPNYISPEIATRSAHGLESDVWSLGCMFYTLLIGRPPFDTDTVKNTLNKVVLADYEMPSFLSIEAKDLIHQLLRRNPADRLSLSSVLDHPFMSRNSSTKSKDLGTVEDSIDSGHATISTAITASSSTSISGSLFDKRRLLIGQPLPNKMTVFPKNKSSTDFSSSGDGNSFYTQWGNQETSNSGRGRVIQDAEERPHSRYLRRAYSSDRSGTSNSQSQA
Briefly: PLK4 Inhibition Assay (indirect ELISA). In kind it is biochemical. As to conditions: 15 μM ATP, 4 nM GST-PLK4; read-out: PLK4 IC50 Ranges. In short, it runs like this: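 Dephosphorylated (lambda phosphatase) GST-PLK4 activity read by indirect ELISA. Compounds were pre-incubated with enzyme for 15 minutes before ATP was added. IC50 came from a non-linear 4-point logistic fit.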

Assay [2] has as its target T2, PLK3 (Homo sapiens, UniProt Q9H4B4).
T2 construct: purchased Invitrogen PV3812
Briefly: PLK3 Inhibition Assay (Z-Lyte). In kind it is biochemical. As to conditions: 100 μM ATP, 21 nM PLK3. As for the experimental part: PLK3 inhibition was determined using the Z-Lyte assay kit from Invitrogen (cat #PV3802). The assay was performed using the recommended manufacturer's instructions with 100 μM ATP and 21 nM PLK3 (Invitrogen cat #PV3812). The % inhibition values were determined according to the manufacturer's directions and IC50 values were obtained using a non-linear 4 point logistic curve fit (XLfit4, IDBS).

Assay [3] deals with T3, PLK1 (Homo sapiens, UniProt P53350).
T3 construct: purchased Invitrogen PV3501
T3 sequence (P53350 whole entry): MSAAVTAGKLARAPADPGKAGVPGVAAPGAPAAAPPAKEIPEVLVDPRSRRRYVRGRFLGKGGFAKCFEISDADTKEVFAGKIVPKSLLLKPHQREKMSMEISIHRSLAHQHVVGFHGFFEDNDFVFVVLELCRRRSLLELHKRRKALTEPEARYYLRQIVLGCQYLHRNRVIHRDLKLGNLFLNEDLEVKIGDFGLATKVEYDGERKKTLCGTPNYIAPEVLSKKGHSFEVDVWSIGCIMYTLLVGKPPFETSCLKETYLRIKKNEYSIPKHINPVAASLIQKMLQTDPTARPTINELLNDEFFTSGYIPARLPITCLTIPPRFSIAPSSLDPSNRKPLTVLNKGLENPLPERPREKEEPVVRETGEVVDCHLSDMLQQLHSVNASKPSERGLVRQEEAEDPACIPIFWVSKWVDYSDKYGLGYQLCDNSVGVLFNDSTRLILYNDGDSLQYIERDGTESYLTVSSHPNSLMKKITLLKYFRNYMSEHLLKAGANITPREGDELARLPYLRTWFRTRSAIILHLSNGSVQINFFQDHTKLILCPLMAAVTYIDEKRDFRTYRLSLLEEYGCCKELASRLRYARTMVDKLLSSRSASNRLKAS
Briefly: PLK1 Inhibition Assay (Z-Lyte). To be noted: for IC50: 25 μM ATP, 8 nM PLK1, read-out: PLK1 IC50 Ranges. In kind it is biochemical. The procedure: PLK1 inhibition was determined using the Z-Lyte assay kit from Invitrogen (cat #PV3802). […] The % inhibition values were determined according to the manufacturer's directions and IC50 values were obtained using a non-linear 4 point logistic curve fit (XLfit4, IDBS)

In assay [4] the target is T4, PLK2 (Homo sapiens, UniProt Q9NYY3).
T4 construct: purchased Invitrogen PV4204
T4 sequence (Q9NYY3 whole entry): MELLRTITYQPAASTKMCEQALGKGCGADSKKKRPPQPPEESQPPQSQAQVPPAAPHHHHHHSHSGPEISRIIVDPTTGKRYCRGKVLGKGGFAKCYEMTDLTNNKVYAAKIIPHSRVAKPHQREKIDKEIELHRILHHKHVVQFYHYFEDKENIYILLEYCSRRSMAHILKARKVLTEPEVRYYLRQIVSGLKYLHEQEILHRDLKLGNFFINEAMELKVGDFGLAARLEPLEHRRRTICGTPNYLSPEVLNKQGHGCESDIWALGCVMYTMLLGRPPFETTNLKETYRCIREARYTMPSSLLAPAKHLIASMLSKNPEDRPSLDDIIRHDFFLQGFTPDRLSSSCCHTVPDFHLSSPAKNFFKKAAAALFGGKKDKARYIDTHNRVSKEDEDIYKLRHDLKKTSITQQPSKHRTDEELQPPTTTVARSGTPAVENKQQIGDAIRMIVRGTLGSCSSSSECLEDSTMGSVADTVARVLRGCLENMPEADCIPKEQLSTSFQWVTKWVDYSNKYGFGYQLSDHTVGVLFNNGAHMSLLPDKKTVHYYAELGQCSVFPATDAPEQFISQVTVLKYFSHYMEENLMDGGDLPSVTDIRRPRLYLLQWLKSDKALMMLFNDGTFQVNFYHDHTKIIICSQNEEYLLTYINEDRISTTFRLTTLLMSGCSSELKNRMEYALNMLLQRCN
Briefly: PLK2 Inhibition Assay (Z-Lyte). As to conditions: 10 μM compound; read-out: PLK2 relative inhibition percentage at a dose of 10 μM. The class given is biochemical. As for the experimental part:
PLK2 inhibition was determined using the Z-Lyte assay kit from Invitrogen (cat #PV3802). The assay was performed using the recommended manufacturer's instructions with 60 μM ATP and 133 nM PLK2 (Invitrogen cat #PV4204). The % inhibition values were determined according to the manufacturer's directions and IC50 values were obtained using a non-linear 4 point logistic curve fit (XLfit4, IDBS)

Assay [5] addresses T5, Aurora A (Homo sapiens, UniProt O14965).
T5 construct: purchased Invitrogen PV3612
T5 sequence (O14965 1-403): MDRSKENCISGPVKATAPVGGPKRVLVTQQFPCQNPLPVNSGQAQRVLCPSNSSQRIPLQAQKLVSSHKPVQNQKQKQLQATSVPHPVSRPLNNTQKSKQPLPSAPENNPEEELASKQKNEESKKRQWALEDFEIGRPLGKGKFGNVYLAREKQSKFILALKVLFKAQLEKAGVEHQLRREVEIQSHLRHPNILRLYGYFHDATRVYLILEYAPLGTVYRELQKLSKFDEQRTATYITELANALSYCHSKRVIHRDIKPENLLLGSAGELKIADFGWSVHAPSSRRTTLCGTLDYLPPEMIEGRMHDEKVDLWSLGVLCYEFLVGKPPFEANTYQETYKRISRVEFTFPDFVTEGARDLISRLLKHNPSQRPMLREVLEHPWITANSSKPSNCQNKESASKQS
Briefly: Aurora A Inhibition Assay (Z-Lyte). In kind it is biochemical. As to conditions: for IC50: 20 μM ATP, 12 nM Aurora A, read-out: Aurora A IC50 Ranges. The procedure:
Aurora A inhibition was determined using the Z-Lyte assay kit from Invitrogen. The assay was performed using the recommended manufacturer's instructions with 20 μM ATP and 12 nM Aurora A (Invitrogen cat #PV3612). The % inhibition values were determined according to the manufacturer's directions and IC50 values were obtained using a non-linear 4 point logistic curve fit (XLfit4, IDBS)

In assay [6] the target is T6, Aurora B (Homo sapiens, UniProt Q96GD4).
T6 construct: purchased Invitrogen PV3970
T6 sequence (Q96GD4 whole entry): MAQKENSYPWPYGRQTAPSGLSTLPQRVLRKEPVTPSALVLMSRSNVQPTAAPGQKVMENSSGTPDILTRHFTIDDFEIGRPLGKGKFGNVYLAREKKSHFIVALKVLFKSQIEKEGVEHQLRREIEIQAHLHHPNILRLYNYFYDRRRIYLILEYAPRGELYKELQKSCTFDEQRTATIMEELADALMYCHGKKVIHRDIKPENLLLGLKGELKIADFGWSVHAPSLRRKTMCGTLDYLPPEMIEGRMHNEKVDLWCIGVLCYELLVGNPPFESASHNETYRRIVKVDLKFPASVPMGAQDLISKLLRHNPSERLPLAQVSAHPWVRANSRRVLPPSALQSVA
Briefly: Aurora B Inhibition Assay (Z-Lyte). The class given is biochemical. To be noted: for IC50: 128 μM ATP, 28 nM Aurora B, read-out: Aurora B IC50 Ranges. The procedure: Aurora B inhibition was determined using the Z-Lyte assay kit from Invitrogen. The assay was performed using the recommended manufacturer's instructions with 128 μM ATP and 28 nM Aurora B (Invitrogen cat #PV3970). The % inhibition values were determined according to the manufacturer's directions and IC50 values were obtained using a non-linear 4 point logistic curve fit (XLfit4, IDBS)

For assay [7], the system named is A549 lung cancer cells. Briefly: Cell growth inhibition, Sulforhodamine B assay (SRB). The class given is cell-based. To be noted: Homo sapiens, A549, 120 h, 5 days culture, read-out: Cell Line GI50 Range, A-549. As for the experimental part: (§1) Breast cancer cells (MCF-7, MDA-MB-468, HCC1954), colon cancer cells (SW620) and lung cancer cells (A549), together with human mammary epithelial primary cells (HMEC), were seeded (1000 to 4000 per 80 μl per well depending on the cell growth rate) into 96 well plates, 24 hours before compound overlay. Compounds were prepared as 10 mM stock solutions in 100% DMSO which were diluted with DMEM (Dulbecco's Modified Eagle's Medium) cell growth Medium (Invitrogen, Burlington, ON, Canada) containing 10% FBS (Fetal Bovine Serum) to concentrations ranging from 50 nM to 250 μM. Aliquots (20 μl) from each concentration were overlaid to 80 μl of the pre-seeded cells in the 96 well plates to make final concentrations of 10 nM to 50 μM. The cells were cultured for 5 days before the Sulforhodamine B assay (SRB) was performed to determine the compound's cell growth inhibition activity.
(§2) Sulforhodamine B (purchased from Sigma, Oakville, ON, Canada) is a water-soluble dye that binds to the basic amino acids of the cellular proteins. Thus, colorimetric measurement of the bound dye provides an estimate of the total protein mass that is related to the cell number. the cells are fixed in situ by gently aspirating off the culture media and adding 50 μl ice cold 10% Tri-chloroacetic Acid (TCA) per well and incubate at 4° C. for 30-60 min, The plates are washed with water five times and allowed to air dry for 5 min. Addition of 50 μl 0.4% (w/v) SRB solution in 1% (v/v) acetic acid to each well and incubatation for 30 min at RT completes the staining reaction. Following staining, plates are washed four times with 1% acetic acid to remove unbound dye and then allowed to air dry for 5 min. The stain is solubilized with 100 μl of 10 mM Tris pH10.5 per well. Absorbance is read at 570 nm.
(§3) The percentage (%) of relative growth inhibition was calculated by comparing to DMSO treated only cells (100%). GI50's were determined for compounds with cytotoxic activity. The GI50 was calculated using GraphPad PRISM software (GraphPad Software, Inc., San Diego, Calif., USA).
(The SRB assay estimates cell density from bound dye.)

In assay [8] the test system is HCC1954 basal breast cancer cell line. The assay is described as above. As to conditions: Homo sapiens, HCC1954, 120 h, 5 days culture, read-out: Cell Line GI50 Range, HCC-1954. In kind it is cell-based. As for the experimental part: as §1, §2, §3
For assay [9], the system named is MCF-7 luminal breast cancer cell line. The assay is described as above. In kind it is cell-based. To be noted: Homo sapiens, MCF7, 120 h; 5 days culture, SRB; read-out: Cell Line GI50 Range, MCF-7. As for the experimental part:
as §1, §2, §3

In assay [10] the test system is MDA-MB-468 basal breast cancer cell line. The assay is described as above. In kind it is cell-based. To be noted: Homo sapiens, MDA-MB-468, 120 h; 5 days culture, SRB; read-out: Cell Line GI50 Range, MDA-MB-468. The procedure:
as §1, §2, §3

In assay [11] the test system is SW620 colon cancer cells. The assay is described as above. In kind it is cell-based. As to conditions: Homo sapiens, SW-620, 120 h, 5 days culture, read-out: Cell Line GI50 Range, SW-620. The procedure:
as §1, §2, §3

T2 sequence (Q9H4B4 whole entry): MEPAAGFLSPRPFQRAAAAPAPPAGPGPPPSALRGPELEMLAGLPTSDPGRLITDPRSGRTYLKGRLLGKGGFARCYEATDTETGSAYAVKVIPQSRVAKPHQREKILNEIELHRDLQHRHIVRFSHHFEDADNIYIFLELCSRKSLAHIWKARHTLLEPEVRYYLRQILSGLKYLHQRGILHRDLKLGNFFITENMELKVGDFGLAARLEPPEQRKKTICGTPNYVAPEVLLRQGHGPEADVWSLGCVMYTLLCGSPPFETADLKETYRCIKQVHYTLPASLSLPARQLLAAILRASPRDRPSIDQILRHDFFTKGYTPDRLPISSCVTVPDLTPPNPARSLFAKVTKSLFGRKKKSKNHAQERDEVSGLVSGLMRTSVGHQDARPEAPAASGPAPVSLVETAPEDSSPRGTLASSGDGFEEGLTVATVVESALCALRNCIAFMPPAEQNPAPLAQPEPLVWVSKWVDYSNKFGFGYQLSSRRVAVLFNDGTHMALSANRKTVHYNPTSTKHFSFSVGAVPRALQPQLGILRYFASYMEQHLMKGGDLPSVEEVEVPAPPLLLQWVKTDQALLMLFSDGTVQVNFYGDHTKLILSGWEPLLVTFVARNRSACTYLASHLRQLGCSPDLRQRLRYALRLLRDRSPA

The term IC50 denotes the midpoint of a concentration-inhibition curve. As for `N#Cc1cccc2c1NC(=O)C2=Cc1ccc2cn[nH]c2c1` (mixture of isomers) [Example A45, (E and Z)-3-((1H-indazol-6-yl)methylene)-2-oxoindoline-7-carbonitrile], the IC50 was 5 to 50 µM in assay [1] and above 0.5 µM in [2].

As usually defined, the inhibition is how much of the control response was suppressed. The GI50 is the concentration that inhibits growth by half. On to `COc1ccccc1/C=C/c1n[nH]c2cc(C=C3C(=O)Nc4ccccc43)ccc12` (mixture of isomers) [Example A59, (E and Z)-3-((3-((E)-2-methoxystyryl)-1H-indazol-6-yl)methylene)-indolin-2-one], for which the IC50 in assay [1], in [5] and in assay [6] was below 5 µM throughout. For the same molecule, the inhibition at 10 µM was below 50% in assay [3] (10 μM compound, read-out: PLK1 relative inhibition percentage at a dose of 10 μM) and below 50% in assay [4]. For the same molecule, the GI50 is 5 to 20 µM in assay [7]; 5 to 20 µM in assay [8]; below 5 µM in assay [9]; below 5 µM in assay [10]; below 5 µM in assay [11].

`CN(C)c1ccc(C#Cc2n[nH]c3cc(C=C4C(=O)Nc5ccccc54)ccc23)cc1` (mixture of isomers) [Example A149, (E and Z)-3-((3-((4-(dimethylamino)phenyl)ethynyl)-1H-indazol-6-yl)methylene)indolin-2-one]: the IC50 in assay [1] was below 5 µM; in [5], 5 to 50 µM; in assay [6], below 5 µM; in [2], above 0.5 µM.

As for `COc1ccc2c(c1)C(=Cc1ccc3c(-c4cccc(-c5nnn[nH]5)c4)n[nH]c3c1)C(=O)N2` (mixture of isomers) [Example A153, (E and Z)-3-((3-(3-(1H-tetrazol-5-yl)phenyl)-1H-indazol-6-yl)methylene)-5-methoxyindolin-2-one], the IC50 in assay [1] is below 5 µM; in assay [5] it was below 5 µM; in [6], below 5 µM; in assay [2], above 0.5 µM.

On to `Nc1ccc2c(c1)/C(=C\c1ccc3[nH]nnc3c1)C(=O)N2` [Example A2, (E)-3-((1H-benzo[d][1,2,3]triazol-5-yl)methylene)-5-aminoindolin-2-one], for which the IC50 in [1] is below 5 µM; in [3], 5 to 50 µM; in [5], below 5 µM; in [6] it was below 5 µM; in assay [2] it was above 0.5 µM. Moreover, the inhibition at 10 µM in assay [4] was below 50%. Also, the GI50 in assay [9] is above 50 µM; in assay [10] it was 5 to 20 µM.

Turning to `CC(C)NC(=O)Nc1ccc2c(c1)/C(=C\c1ccc3cn[nH]c3c1)C(=O)N2` [Example A26, (E)-1-(3-((1H-indazol-6-yl)methylene)-2-oxoindolin-5-yl)-3-isopropylurea], the IC50 in assay [1] was below 5 µM; in assay [3], 5 to 50 µM; in assay [5] it was below 5 µM; in [2] it was above 0.5 µM. The inhibition at 10 µM was below 50% in assay [4] and below 50% in assay [6] (10 μM compound, read-out: Aurora B relative inhibition percentage at a dose of 10 μM).

Turning to `CC(=O)Nc1cccc2c1NC(=O)/C2=C/c1ccc2cn[nH]c2c1` [Example A49, (E)-N-(3-((1H-indazol-6-yl)methylene)-2-oxoindolin-7-yl)acetamide], the IC50 in assay [1] is below 5 µM; in [3], above 50 µM; in [2], above 0.5 µM. Further, the inhibition at 10 µM in [4] was above 50%.

In the case of `Cc1ccc2c(c1)/C(=C\c1ccc3c(/C=C/C(=O)N(C)CCN(C)C)n[nH]c3c1)C(=O)N2` [Example A125, (E and Z)—N-(2-(dimethylamino)ethyl)-N-methyl-3-(6-((E)-(5-methyl-2-oxoindolin-3-ylidene)methyl)-1H-indazol-3-yl)acrylamide], the concentration for half-maximal inhibition (IC50) was below 5 µM in assay [1], below 5 µM in assay [6] and above 0.5 µM in assay [2]. The inhibition at 10 µM in [5] (10 μM compound, read-out: Aurora A relative inhibition percentage at a dose of 10 μM) is above 50%.

Take `COc1ccc2c(c1)/C(=C\c1ccc3c(C#Cc4cccnc4)n[nH]c3c1)C(=O)N2` [Example A148, (E)-5-methoxy-3-((3-(pyridin-3-ylethynyl)-1H-indazol-6-yl)methylene)indolin-2-one]: the results for the IC50 in [1], in assay [6] and in assay [2] were below 5 µM, below 5 µM and above 0.5 µM, respectively.

In the case of `CN1CCN(c2ncc(-c3n[nH]c4cc(C=C5C(=O)Nc6ccc(OC(F)(F)F)cc65)ccc34)cn2)CC1` [Example A152, (E & Z)-3-((3-(2-(4-methylpiperazin-1-yl)pyrimidin-5-yl)-1H-indazol-6-yl)methylene)-5-(trifluoromethoxy)indolin-2-one], the IC50 in assay [1] was below 5 µM; in assay [6] it was 5 to 50 µM; in assay [2] it was above 0.5 µM.
